As a reminder, the inhibition is the share of the control response that was lost under treatment. Broadly, the MIC is the least concentration at which growth counts as inhibited. A low value points to greater potency.

The source made the active and inactive calls. No cut-off for these calls is given here.

Results on 31 compounds are retold here after ChEMBL document CHEMBL4265949, “Design, synthesis and biological evaluation of 2-substituted 3-hydroxy-6-methyl-4H-pyran-4-one derivatives as Pseudomonas aeruginosa biofilm inhibitors” (Eur J Med Chem, 2018).

The test system of series [1] is Pseudomonas aeruginosa. Briefly: Inhibition of biofilm formation of Pseudomonas aeruginosa PAO1 at 20 uM after 24 hrs by crystal violet staining based assay relative to control. In kind it is functional. The settings on record: PAO1, 24 h.
The subject of series [2] is Pseudomonas aeruginosa. Briefly: Antibacterial activity against Pseudomonas aeruginosa PAO1 recorded every 10 mins for 15 hrs by broth micro dilution method. In kind it is functional.
The target of series [3] is T1, Anthranilate--CoA ligase (Pseudomonas aeruginosa (strain ATCC 15692 / DSM 22644 / CIP 104116 /JCM 14847 / LMG 12228 / 1C / PRS 101 / PAO1)) (UniProt Q9I4X3).
T1 sequence (whole entry): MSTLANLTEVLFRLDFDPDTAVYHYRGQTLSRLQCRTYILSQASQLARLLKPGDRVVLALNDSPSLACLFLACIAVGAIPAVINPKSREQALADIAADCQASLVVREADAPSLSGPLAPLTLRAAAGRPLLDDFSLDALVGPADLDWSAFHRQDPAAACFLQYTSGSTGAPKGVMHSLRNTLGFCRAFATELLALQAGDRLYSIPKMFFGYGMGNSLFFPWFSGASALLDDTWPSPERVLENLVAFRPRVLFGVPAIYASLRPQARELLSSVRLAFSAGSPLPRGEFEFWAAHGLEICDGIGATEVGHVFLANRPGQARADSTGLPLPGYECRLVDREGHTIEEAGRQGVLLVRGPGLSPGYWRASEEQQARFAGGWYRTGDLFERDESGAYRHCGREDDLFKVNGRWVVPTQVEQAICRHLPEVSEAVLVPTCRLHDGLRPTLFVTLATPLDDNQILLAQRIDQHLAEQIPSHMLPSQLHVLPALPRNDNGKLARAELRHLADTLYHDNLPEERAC
Briefly: Inhibition of Pseudomonas aeruginosa PAO1 GFP-fused quorum sensing pqsA assessed as decrease in pyocyanin production at 40 uM.

Series [4] addresses T1, Anthranilate--CoA ligase (Pseudomonas aeruginosa (strain ATCC 15692 / DSM 22644 / CIP 104116 /JCM 14847 / LMG 12228 / 1C / PRS 101 / PAO1)). Briefly: Inhibition of Pseudomonas aeruginosa PAO1 GFP-fused quorum sensing pqsA measured every 15 mins up to 12 hrs by GFP reporter gene assay. (In general: A reporter such as luciferase makes a cellular process visible.)
The target in series [5] is 3-(3-hydroxydecanoyloxy)decanoate synthase (Pseudomonas aeruginosa (strain ATCC 15692 / PAO1 / 1C / PRS 101 / LMG12228)) (UniProt Q51559). Briefly: Inhibition of Pseudomonas aeruginosa PAO1 GFP-fused quorum sensing rhlA up to 40 uM measured every 15 mins up to 12 hrs by GFP reporter gene assay.
The target in series [6] is Elastase (Pseudomonas aeruginosa (strain ATCC 15692 / PAO1 / 1C / PRS 101 / LMG12228)) (UniProt P14756). Briefly: Inhibition of Pseudomonas aeruginosa PAO1 GFP-fused quorum sensing lasB up to 40 uM measured every 15 mins up to 12 hrs by GFP reporter gene assay.
The test system of series [7] is RAW264.7. Briefly: Cytotoxicity against mouse RAW264.7 cells assessed as decrease in cell viability at <= 2.5 uM after 24 hrs by MTT assay. It is filed as cell-based. The settings on record: raw264.7, 24 h. In general terms: Tetrazolium dyes change colour on reduction, which living cells bring about.
Series [8] concerns the target 3-(3-hydroxydecanoyloxy)decanoate synthase (Pseudomonas aeruginosa (strain ATCC 15692 / PAO1 / 1C / PRS 101 / LMG12228)) (UniProt Q51559). Briefly: Inhibition of Pseudomonas aeruginosa PAO1 GFP-fused quorum sensing rhlA assessed as decrease in rhamnolipid lipid levels up to 40 uM measured after 30 mins.
For series [9], the system named is RAW264.7. Briefly: Cytotoxicity against mouse RAW264.7 cells assessed as decrease in cell viability at 50 uM after 24 hrs by MTT assay. In kind it is cell-based. The settings on record: raw264.7, 24 h.
Series [10] concerns the target T1, Anthranilate--CoA ligase (Pseudomonas aeruginosa (strain ATCC 15692 / DSM 22644 / CIP 104116 /JCM 14847 / LMG 12228 / 1C / PRS 101 / PAO1)). Briefly: Inhibition of Pseudomonas aeruginosa PAO1 GFP-fused quorum sensing pqsA assessed as decrease in pyocyanin production.
Series [11] in a line: Effect on GFP (unknown origin) protein expression in Pseudomonas aeruginosa PAO1 up to 40 uM after 12 hrs by GFP reporter gene assay. The settings on record: unidentified.
The test system of series [12] is Pseudomonas aeruginosa. Briefly: Antibacterial activity against Pseudomonas aeruginosa PAO1 up to 40 uM after 13 hrs by broth micro dilution method. In kind it is functional, organism-based.
In series [13] the target is Elastase (Pseudomonas aeruginosa (strain ATCC 15692 / PAO1 / 1C / PRS 101 / LMG12228)) (UniProt P14756). Briefly: Inhibition of Pseudomonas aeruginosa PAO1 GFP-fused quorum sensing lasB assessed as decrease in elastase activity up to 40 uM incubated for 24 hrs recorded every 10 mins for 3 hrs.
For series [14], the system named is Pseudomonas aeruginosa. Briefly: Inhibition of biofilm formation of Pseudomonas aeruginosa PAO1 at 2.5 uM after 24 hrs by crystal violet staining based assay relative to control. It is filed as functional. The settings on record: PAO1, 24 h.
The test system of series [15] is Pseudomonas aeruginosa. Briefly: Inhibition of biofilm formation of Pseudomonas aeruginosa PAO1 after 24 hrs by confocal laser scanning microscopy. It is filed as functional, organism-based.
Series [16] relates to Pseudomonas aeruginosa. Briefly: Inhibition of biofilm formation of Pseudomonas aeruginosa PAO1 after 24 hrs by crystal violet staining based assay. It is filed as functional, organism-based.

Elastase (Pseudomonas aeruginosa (strain ATCC 15692 / PAO1 / 1C / PRS 101 / LMG12228)), sequence (P14756 198-498 limits assumed): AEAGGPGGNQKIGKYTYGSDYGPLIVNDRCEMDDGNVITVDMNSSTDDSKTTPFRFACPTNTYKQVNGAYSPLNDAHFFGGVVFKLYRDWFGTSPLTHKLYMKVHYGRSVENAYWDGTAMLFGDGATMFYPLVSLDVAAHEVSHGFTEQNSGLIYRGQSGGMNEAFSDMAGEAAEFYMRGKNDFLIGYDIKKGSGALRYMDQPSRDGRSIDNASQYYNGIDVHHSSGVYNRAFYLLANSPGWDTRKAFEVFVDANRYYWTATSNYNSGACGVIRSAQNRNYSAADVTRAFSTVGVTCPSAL

In the series with Pseudomonas aeruginosa [1], `Cc1cc(=O)c(O)c(C(O)c2ccc(C#CC3CCCCC3)cc2)o1` (stereo unspecified) showed an inhibition at 20 µM of 36.9%. For the same compound, the MIC in the series on Pseudomonas aeruginosa [2] was > 512 µM.
On the same counts, the results for `Cc1cc(=O)c(O)c(C(O)c2ccc(-c3ccccc3)cc2)o1` (stereo unspecified) are 3.26% and > 512 µM.
On the same counts, the results for `Cc1cc(=O)c(O)c(C(O)c2cccc(Br)c2)o1` (stereo unspecified) are 5.67% and > 512 µM.
`Cc1cc(=O)c(O)c(C(O)c2ccc(OCc3ccccc3)cc2)o1` (stereo unspecified): the inhibition at 20 µM in the series with Pseudomonas aeruginosa [1] came out at 22%. The MIC against Pseudomonas aeruginosa [2] is > 512 µM.
For `Cc1cc(=O)c(O)c(C(O)c2ccc(C#Cc3ccc(F)cc3)cc2)o1` (stereo unspecified), in that order: 39.1% and > 512 µM.
With `CSCCC(O)c1oc(C)cc(=O)c1O` (stereo unspecified), testing at 20 µM with Pseudomonas aeruginosa [1] gave an inhibition of 25.9%. The MIC in the series with Pseudomonas aeruginosa [2] is > 512 µM.
For `Cc1cc(=O)c(O)c(C(O)c2ccc([N+](=O)[O-])cc2)o1` (stereo unspecified), the inhibition in [3] was 60%; in series [4], “Dose-dependent effect”; in series [10] it was “Dose-dependent effect”; with Pseudomonas aeruginosa [15] it was “Dose-dependent effect”; in the series on Pseudomonas aeruginosa [16] it was “Dose-dependent effect”. Further, the inhibition entry in [5], in [6], in [8] and in [13] was “inactive” throughout. This compound returned an inhibition at 20 µM in the series with Pseudomonas aeruginosa [1] of 51%. Further, the values for the Activity result (with RAW264.7 [7]; in the series on RAW264.7 [9]; in series [11]) were “Non-Toxic”, “Toxic” and “Non-Toxic”, respectively. The MIC in the series with Pseudomonas aeruginosa [2] is > 512 µM. In addition, the result in the series with Pseudomonas aeruginosa [12] was inactive. The inhibition at 2.5 µM in the series with Pseudomonas aeruginosa [14] was determined as 30%.
For `Cc1cc(=O)c(O)c(Cc2ccc(C(F)(F)F)cc2)o1`, 20 µM produced 32.8% inhibition with Pseudomonas aeruginosa [1]. Further, in the series with Pseudomonas aeruginosa [2], the MIC is > 512 µM.
On the same counts, the results for `CCCC(O)c1oc(C)cc(=O)c1O` (stereo unspecified) are 33.2% and > 512 µM.
On the same counts, the results for `Cc1cc(=O)c(O)c(C(O)c2ccc(OCc3ccc([N+](=O)[O-])cc3)cc2)o1` (stereo unspecified) are 22% and > 512 µM.
For `Cc1cc(=O)c(O)c(C(O)c2ccc(C#Cc3ccccn3)cc2)o1` (stereo unspecified), in that order: 37.7% and > 512 µM.
`Cc1cc(=O)c(O)c(Cc2ccc(F)cc2)o1` gave an inhibition at 20 µM with Pseudomonas aeruginosa [1] of 30.5%. In addition, in the series on Pseudomonas aeruginosa [2], the MIC was > 512 µM.
For the compound `Cc1cc(=O)c(O)c(C(O)c2ccc(Cc3ccccc3)cc2)o1` (stereo unspecified), the inhibition at 20 µM in the series on Pseudomonas aeruginosa [1] worked out at 20.6%. Further, the MIC against Pseudomonas aeruginosa [2] was > 512 µM.
For `Cc1cc(=O)c(O)c(C(O)c2cccc(F)c2)o1` (stereo unspecified), in that order: 12.3% and > 512 µM.
On the same counts, the results for `Cc1cc(=O)c(O)c(C(O)c2ccccc2Br)o1` (stereo unspecified) are 9.04% and > 512 µM.
In the case of `Cc1cc(=O)c(O)c(C(O)c2ccc(-n3ccnc3)cc2)o1` (stereo unspecified), in the series with Pseudomonas aeruginosa [1], the inhibition at 20 µM stood at 17.3%. For the same compound, in the series on Pseudomonas aeruginosa [2], the MIC was > 512 µM.
On the same counts, the results for `Cc1cc(=O)c(O)c(C(O)c2ccc(C#Cc3ccc(C(F)(F)F)cc3)cc2)o1` (stereo unspecified) are 24.9% and > 512 µM.
Regarding `Cc1cc(=O)c(O)c(C(O)c2ccc(-c3ccc([N+](=O)[O-])cc3)cc2)o1` (stereo unspecified), the inhibition at 20 µM in the series with Pseudomonas aeruginosa [1] came to 48.5%. Further, the minimal inhibitory concentration (MIC) with Pseudomonas aeruginosa [2] was > 512 µM.
For `CCCCCCC(O)c1oc(C)cc(=O)c1O` (stereo unspecified), in that order: 41.5% and > 512 µM.
For `Cc1cc(=O)c(O)c(Cc2ccc(Cl)cc2)o1`, in that order: 34.2% and > 512 µM.
On the same counts, the results for `CCCCCCCC(O)c1oc(C)cc(=O)c1O` (stereo unspecified) are 15.8% and > 512 µM.
In turn, `Cc1cc(=O)c(O)c(C(O)c2ccc(S(F)(F)(F)(F)F)cc2)o1` (stereo unspecified) had an inhibition at 20 µM in the series with Pseudomonas aeruginosa [1] of 31.7%. Besides, the MIC against Pseudomonas aeruginosa [2] is > 512 µM.
For `CCCCCC(O)c1oc(C)cc(=O)c1O` (stereo unspecified), in that order: 44.6% and > 512 µM.
In the case of `Cc1cc(=O)c(O)c(C(O)c2ccccc2F)o1` (stereo unspecified), the inhibition at 20 µM in the series on Pseudomonas aeruginosa [1] was found to be 5.34%. Moreover, the MIC against Pseudomonas aeruginosa [2] was > 512 µM.
For `Cc1cc(=O)c(O)c(C(O)c2ccc(C#Cc3ccccc3)cc2)o1` (stereo unspecified), in that order: 30.2% and > 512 µM.
On the same counts, the results for `Cc1cc(=O)c(O)c(Cc2ccccc2)o1` are 27.4% and > 512 µM.
On the same counts, the results for `Cc1cc(=O)c(O)c(C(O)c2ccc(C#Cc3cccc(F)c3)cc2)o1` (stereo unspecified) are 31.5% and > 512 µM.
For the compound `Cc1cc(=O)c(O)c(C(O)c2ccc(/C=C/c3ccccc3)cc2)o1` (stereo unspecified), the inhibition at 20 µM with Pseudomonas aeruginosa [1] worked out at 35.1%. Further, the MIC against Pseudomonas aeruginosa [2] is > 512 µM.
On the same counts, the results for `COc1ccc(C#Cc2ccc(C(O)c3oc(C)cc(=O)c3O)cc2)cc1` (stereo unspecified) are 26.3% and > 512 µM.
For `CCCCC(O)c1oc(C)cc(=O)c1O` (stereo unspecified), in that order: 22% and > 512 µM.
In the series with Pseudomonas aeruginosa [1], `Cc1cc(=O)c(O)c(C(O)c2ccc(CCc3ccccc3)cc2)o1` (stereo unspecified) had an inhibition at 20 µM of 28.7%. The minimal inhibitory concentration (MIC) in the series on Pseudomonas aeruginosa [2] is > 512 µM.
